Measurements from US8993717B2, “Gadd45beta targeting agents” (Imperial Innovations Limited, priority 2009, dated 2015).
pIC50: −log10 of the molar value. Square brackets hold non-standard residues; d marks the D form. Peptide text beside a SMILES is read from it. * marks the point of attachment. Cbz = O=C(OCc1ccccc1)*

Tests used:
Gadd45β-inhibited MKK7 = target: T1, Gadd45β-inhibited MKK7 (Homo sapiens, UniProt O14733); assay: MKK7 kinase assay in the presence of recombinant hGadd45β; assay type: biochemical; conditions: 1 nM or 5 nM peptide, 5 μM GST-hGadd45β
T1 construct: expressed in transfected cells; host or cells: HEK-293 (FLAG-MKK7); bacteria (GST-hGadd45β)
T1 sequence (O14733 1-419): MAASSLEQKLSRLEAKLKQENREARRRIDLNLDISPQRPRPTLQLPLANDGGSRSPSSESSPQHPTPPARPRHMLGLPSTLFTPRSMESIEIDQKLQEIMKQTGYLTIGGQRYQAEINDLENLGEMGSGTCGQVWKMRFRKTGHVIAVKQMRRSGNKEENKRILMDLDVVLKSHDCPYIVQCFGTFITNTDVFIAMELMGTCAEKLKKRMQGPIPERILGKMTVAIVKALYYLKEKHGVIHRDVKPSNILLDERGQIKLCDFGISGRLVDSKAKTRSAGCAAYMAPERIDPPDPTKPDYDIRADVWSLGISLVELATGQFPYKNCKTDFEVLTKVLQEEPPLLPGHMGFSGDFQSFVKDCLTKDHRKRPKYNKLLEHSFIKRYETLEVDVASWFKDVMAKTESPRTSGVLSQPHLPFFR
Method: In FIG. 6, transient transfection of pcDNA-FLAG-MKK7 in HEK-293 cells was performed using the method of Ca3(PO4)2 precipitation, essentially as described in Papa, S et al., (2004) Nat. Cell Biol. 6, 146-153 and references therein. 36 hrs after transfection, the cells were treated with 100 ng/ml phorbol 12-myristate 13-acetate (PMA) and 1 μM ionomycin for 30 min at 37° C. Cell extracts were prepared as described in example 4 and used for immunoprecipitation with anti-FLAG antibodies (binding to FLAG-MKK7) as described in Papa, S et al., (2004) Nat. Cell Biol. 6, 146-153 and references therein. Briefly, 50 μg of cell lysate from PMA-ionomycin (P/D-treated or untreated, HEK-293 cells transiently expressing FLAG-MKK7 was incubated with 10 μl of anti-FLAG M2 Affinity Gel (SIGMA) for 4 hrs at 4° C. during rotation. The immunoprecipitates were then washed 3 times in lysis buffer and twice more in kinase buffer (10 mM HEPES, 5 mM MgCl2, 1 mM MnCl2,12.5 mM β-glycerophosphate, 2 mM DTT, 4 mM NaF and 0.1 mM Na3VO4). MKK7 catalytic activity was finally measured in kinase assays by incubating FLAG-MKK7 immunoprecipitates at 30° C. for 20 min with 20 μl of kinase buffer containing 2 μM of recombinant GST-JNK1 and 5 μCi of [γ-^32P]ATP) (kinase reaction), as described in Papa, S et a., (2004) Nat. Cell Biol. 6, 146-153 and references therein.
In some reactions, to test the ability of D-tetrapeptide antagonists to disrupt the Gadd45β-MKK7 interaction and so release the catalytic activity of MKK7 from Gadd45β-afforded inhibition, FLAG-MKK7 immunoprecipitates were 1) first pre-incubated for 10 min at 30° C. with either 1 nM or 5 nM of DTP1, DTP2 or negative control (NC) D-tetrapeptides, NC1, NC2, NC3 and NC4, and 2) then incubated for another 10 min at 30° C. with or without 5 μM of a GST-fusion protein of recombinant human (h)Gadd45β (GST-hGadd45β; purified from bacterial lysates as described in Papa, S., (2007) J. Biol. Chem. 282, 19029-19041), before using them for the kinase reaction described above, as indicated in FIG. 6.
In all cases, kinase reactions were terminated by the addition of Laemmli sample buffer. […] For a further discussion of MKK7 kinase assay conditions, the reader is directed to Papa, S et al., (2007) J. Biol. Chem. 282, 19029-19041 and Papa, S et al., (2004) Nat. Cell Biol. 6, 146-153 and the references therein.

Gadd45β/MKK7 interaction [1] = target: T2, Gadd45β/MKK7 interaction (Homo sapiens, UniProt O14733); assay: ELISA competition assay after 48-hr pre-incubation with human serum at 37° C.; assay type: binding; conditions: for stability after pre-incubation with human serum: result in words
T2 construct: The GST-fused full-length kinase was coated for 16 h at 4° C., at a concentration of 42 nM; made in house
T2 sequence (O14733 1-419): T1 sequence (O14733 1-419)
Method: In FIG. 4, Gadd45β/MKK7 binding, competition ELISA assays were carried out to determine the stability of Z-conjugated D-tetrapeptides in human serum. […] ELISA were performed as described in FIG. 3 C. Briefly, 100 μl of 42 nM of recombinant GST-MKK7 in ELISA buffer (25 mM Tris pH 7.5, 150 mM NaCl, 1 mM DTT, 1 mM EDTA) were coated onto wells of 96-well plates by overnight incubation at 4° C. After blocking with 2% of NFDM for 1 hr at 37° C., plates were washed with TPBS, and then 21 nM of recombinant, biotinylated human (h)Gadd45β were added to the wells together with increasing concentrations of tetrapeptides which had either been subjected or had not been subjected to pre-incubation with human serum, as indicated. For a further discussion of the conditions used for the competition ELISA assay, the reader is directed to Tornatore et al 2008 JMB, 378: 97-111 and the references therein.

[2] = system: U266, KMS-11, NCI-H929, BJAB and U937 tumour cell lines; assay: [3H]thymidine incorporation assay in tumour cell lines at 10 μM; assay type: cell-based, human; conditions: up to 144 hrs, result in words
Method: All experiments were performed in triplicate.

Gadd45β/MKK7 interaction [3] = target: T2, Gadd45β/MKK7 interaction; assay: ELISA competition assay of biotin-hGadd45β binding to coated GST-MKK7; conditions: Table III, modified peptides
How it was run: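 GST-MKK7 (42 nM) coated in Tris pH 7.5 buffer, 16 h, 4 °C; biotin-hGadd45β (21 nM) added with competitor peptides (0.01–100 nM), 1 h, 37 °C. Streptavidin-HRP/o-phenylenediamine read at 490 nm; binding expressed as % of signal without competitor.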

Row | SMILES | restoration of MKK7 catalytic activity (Gadd45β-inhibited MKK7) | pIC50 (Gadd45β/MKK7 interaction [1]) | stability after pre-incubation with human serum (Gadd45β/MKK7 interaction [1]) | tumoricidal/cytotoxic activity in tumour cell lines [2] | % Inhibition of Gadd45β-MKK7 binding (Gadd45β/MKK7 interaction [3]) [%]
1 | NC(=O)[C@H](Cc1ccccc1)NC(=O)[C@H](Cc1c[nH]cn1)NC(=O)[C@H](CC(=O)O)NC(=O)[C@H](Cc1ccc(O)cc1)NC(=O)OCc1ccccc1 [Z-YDHF-NH2] (Cbz-YDHF-NH2) | – | < 5.00 | significant loss of activity | not | –
2 | N=C(N)NCCC[C@H](NC(=O)[C@H](CCC(=O)O)NC(=O)[C@H](Cc1ccc(O)cc1)NC(=O)OCc1ccccc1)C(=O)N[C@@H](Cc1ccccc1)C(N)=O [Z-YERF-NH2] (Cbz-YERF-NH2) | – | < 5.00 | significant loss of activity | low activity | 78

Further lines, with some results ahead:

Row | restoration of MKK7 catalytic activity (Gadd45β-inhibited MKK7) | SMILES | pIC50 (Gadd45β/MKK7 interaction [1]) | stability after pre-incubation with human serum (Gadd45β/MKK7 interaction [1]) | tumoricidal/cytotoxic activity in tumour cell lines [2] | % Inhibition of Gadd45β-MKK7 binding (Gadd45β/MKK7 interaction [3]) [%]
3 | did not | CC(=O)N[C@H](Cc1ccc(O)cc1)C(=O)N[C@H](CC(=O)O)C(=O)N[C@H](Cc1c[nH]cn1)C(=O)N[C@H](CCC(N)=O)C(N)=O [NC1, Acetyl-(D-Tyr)-(D-Asp)-(D-His)-(D-Gln)-NH2] (Ac-[dY][dD][dH][dQ]-NH2) | – | – | – | –
4 | did not | CC(=O)N[C@@H](Cc1ccc(O)cc1)C(=O)N[C@@H](CC(=O)O)C(=O)N[C@@H](Cc1c[nH]cn1)C(=O)N[C@@H](C)C(N)=O [NC2, Acetyl-(L-Tyr)-(L-Asp)-(L-His)-(L-Ala)-NH2] (Ac-YDHA-NH2) | – | – | – | –
5 | did not | CC(=O)N[C@@H](Cc1ccc(O)cc1)C(=O)N[C@@H](CCC(=O)O)C(=O)N[C@@H](CCCCN)C(=O)N[C@@H](Cc1c[nH]c2ccccc12)C(N)=O [NC3, Acetyl-(L-Tyr)-(L-Glu)-(L-Lys)-(L-Trp)-NH2] (Ac-YEKW-NH2) | – | – | – | –
6 | did not | CC(=O)N[C@@H](Cc1ccc(O)cc1)C(=O)N[C@@H](CC(=O)O)C(=O)N[C@@H](CCCCN)C(=O)N[C@@H](Cc1c[nH]c2ccccc12)C(N)=O [NC4, Acetyl-(L-Tyr)-(L-Asp)-(L-Lys)-(L-Trp)-NH2] (Ac-YDKW-NH2) | – | – | – | –
